Source: patent US9914869B2, “System and method for inhibiting scale formation in oil wells” (GLOBAL GREEN PRODUCTS LLC, priority 2012, dated 2018)

Test: Scale inhibitor comparison: static bottle test (barium sulfate) and dynamic tube block test (calcium carbonate)
Conditions: barium sulfate / calcium carbonate scale inhibition; table does not say which scale
Source text: These types of chemistries may be used as a comparison when evaluating one or more new scale inhibitors, such as the various aspartic acid based polymers.

## diethylenetriamine (DETA) phosphonates [DETA Phosphonate]
  Approximate effective Concentration: 2 ppm

## O=P(O)(O)CN(CCCCCCN(CP(=O)(O)O)CP(=O)(O)O)CCCCCCN(CP(=O)(O)O)CP(=O)(O)O [BHMT Phosphonate]
  Approximate effective Concentration: 2 ppm
